Source: ChEMBL document CHEMBL5380874, “Transformation of a Dopamine D2 Receptor Agonist to Partial Agonists as Novel Antipsychotic Agents” (J Med Chem, 2023)

Tests used:
D(2) dopamine receptor [1] = molecular target: T1, D(2) dopamine receptor (Homo sapiens, UniProt P14416); assay: Partial agonist activity at Dopamine D2 receptor (unknown origin) expressed in HEK293T coexpressing beta-arrestin-2 assessed as increase in cAMP accumulation incubated for 5 mins by beta-arrestin recruitment based BRET assay; assay type: functional, cell-based
D(2) dopamine receptor [2] = molecular target: T1, D(2) dopamine receptor; assay: Displacement of [3H]N-methylspiperone from Dopamine D2 receptor (unknown origin) expressed in HEK293T cell membrane incubated for 2 hrs by radioligand competitive binding based MicroBeta TriLux reader method; assay type: cell membranes
D(2) dopamine receptor [3] = molecular target: T1, D(2) dopamine receptor; assay: Partial agonist activity at Dopamine D2 receptor (unknown origin) expressed in HEK293T co-expressing G-alphai assessed as increase in cAMP accumulation incubated for 5 mins by BRET assay; assay type: functional, cell-based
[4] = Drug concentration in C57BL/6J mouse plasma at 5 mg/kg,ip measured at 2 hrs by LC-MS analysis; assay type: ADME, organism-based; conditions: in vivo
[5] = Ratio of drug concentration in brain to plasma in C57BL/6J mouse at 5 mg/kg,ip measured at 2 hrs by LC-MS analysis; assay type: ADME, organism-based; conditions: read-out: BPR
[6] = Ratio of drug concentration in brain to plasma in C57BL/6J mouse at 5 mg/kg,ip measured at 0.5 hrs by LC-MS analysis; assay type: ADME, organism-based; conditions: read-out: BPR
[7] = Drug concentration in C57BL/6J mouse brain at 5 mg/kg,ip measured at 2 hrs by LC-MS analysis; assay type: ADME, organism-based; conditions: read-out: Ct
[8] = Drug concentration in C57BL/6J mouse brain at 5 mg/kg,ip measured at 0.5 hrs by LC-MS analysis; assay type: ADME, organism-based; conditions: read-out: Ct
[9] = Drug concentration in C57BL/6J mouse plasma at 5 mg/kg,ip measured at 0.5 hrs by LC-MS analysis; assay type: ADME, organism-based; conditions: in vivo
[10] = AUC (0-t) in Sprague-Dawley rat at 3 mg/kg,iv measured upto 24 hrs by LC-MS analysis; assay type: ADME, organism-based; design: dose 3 mg/kg, time < 24 hrs, route iv; conditions: in vivo
[11] = Clearance in Sprague-Dawley rat at 3 mg/kg,iv measured upto 24 hrs by LC-MS analysis; assay type: ADME, organism-based; conditions: in vivo
[12] = Cmax in Sprague-Dawley rat at 10 mg/kg,po measured upto 24 hrs by LC-MS analysis; assay type: ADME, organism-based; design: time < 24 hrs, dose 10 mg/kg, route po; conditions: in vivo
[13] = AUC (0-infinity) in Sprague-Dawley rat at 3 mg/kg,iv measured upto 24 hrs by LC-MS analysis; assay type: ADME, organism-based; design: dose 3 mg/kg, time < 24 hrs, route iv; conditions: in vivo
[14] = Half life in Sprague-Dawley rat at 10 mg/kg,po measured upto 24 hrs by LC-MS analysis; assay type: ADME, organism-based; conditions: in vivo
[15] = AUC (0-infinity) in Sprague-Dawley rat at 10 mg/kg,po measured upto 24 hrs by LC-MS analysis; assay type: ADME, organism-based; design: dose 10 mg/kg, time < 24 hrs, route po; conditions: in vivo
[16] = AUC (0-t) in Sprague-Dawley rat at 10 mg/kg,po measured upto 24 hrs by LC-MS analysis; assay type: ADME, organism-based; design: time < 24 hrs, dose 10 mg/kg, route po; conditions: in vivo
[17] = Oral bioavailability in Sprague-Dawley rat at 10 mg/kg measured upto 24 hrs by LC-MS analysis; assay type: ADME, organism-based; conditions: in vivo
[18] = C0 in Sprague-Dawley rat at 3 mg/kg,iv measured upto 24 hrs by LC-MS analysis; assay type: ADME, organism-based; conditions: in vivo
D(1B) dopamine receptor = D(1B) dopamine receptor (Homo sapiens, UniProt P21918); assay: Displacement of […] from Dopamine D5 receptor (unknown origin) expressed in HEK293T cell membrane incubated for 2 hrs by radioligand competitive binding based MicroBeta TriLux reader method; assay type: cell membranes; conditions: read-out: Ki
[19] = molecular target: T2, 5-hydroxytryptamine receptor 2C (Homo sapiens, UniProt P28335); assay: Displacement of [3H]-LSD from 5-HT2C receptor (unknown origin) expressed in HEK293T cell membrane incubated for 2 hrs by radioligand competitive binding based MicroBeta TriLux reader method; assay type: cell membranes
T2 sequence (P28335 whole entry): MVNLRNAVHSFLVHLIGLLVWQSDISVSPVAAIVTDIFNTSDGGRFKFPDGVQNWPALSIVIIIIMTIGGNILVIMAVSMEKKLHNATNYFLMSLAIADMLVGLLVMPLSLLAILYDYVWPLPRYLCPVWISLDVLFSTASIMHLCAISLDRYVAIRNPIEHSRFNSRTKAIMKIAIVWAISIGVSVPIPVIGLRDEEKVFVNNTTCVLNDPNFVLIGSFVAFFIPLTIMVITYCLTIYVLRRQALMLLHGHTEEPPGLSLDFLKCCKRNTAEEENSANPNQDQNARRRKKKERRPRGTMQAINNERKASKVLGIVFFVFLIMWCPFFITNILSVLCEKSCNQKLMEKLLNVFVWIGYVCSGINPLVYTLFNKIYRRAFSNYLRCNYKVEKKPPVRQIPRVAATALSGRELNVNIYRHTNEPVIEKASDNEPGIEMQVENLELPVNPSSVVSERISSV

D(1A) dopamine receptor = D(1A) dopamine receptor (Homo sapiens, UniProt P21728); assay: Displacement of [3H]-SCH23390 from Dopamine D1 receptor (unknown origin) expressed in HEK293T cell membrane incubated for 2 hrs by radioligand competitive binding based MicroBeta TriLux reader method; assay type: cell membranes; conditions: read-out: Ki
[20] = Tmax in Sprague-Dawley rat at 10 mg/kg,po measured upto 24 hrs by LC-MS analysis; assay type: ADME, organism-based; conditions: in vivo
[21] = Half life in Sprague-Dawley rat at 3 mg/kg,iv measured upto 24 hrs by LC-MS analysis; assay type: ADME, organism-based; conditions: in vivo

T1 sequence (P14416 whole entry): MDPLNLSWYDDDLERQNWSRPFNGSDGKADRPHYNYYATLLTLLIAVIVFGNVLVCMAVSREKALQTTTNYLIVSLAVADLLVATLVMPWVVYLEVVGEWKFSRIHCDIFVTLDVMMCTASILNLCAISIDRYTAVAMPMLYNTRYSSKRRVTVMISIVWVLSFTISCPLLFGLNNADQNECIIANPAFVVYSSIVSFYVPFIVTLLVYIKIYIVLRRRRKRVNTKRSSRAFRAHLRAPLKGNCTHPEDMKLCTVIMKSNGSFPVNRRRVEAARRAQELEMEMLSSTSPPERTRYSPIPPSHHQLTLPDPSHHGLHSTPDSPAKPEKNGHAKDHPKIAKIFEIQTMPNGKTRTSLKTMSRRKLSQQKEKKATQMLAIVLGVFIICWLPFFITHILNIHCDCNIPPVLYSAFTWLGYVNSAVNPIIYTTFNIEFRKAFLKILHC
Sequence of D(1A) dopamine receptor (P21728 whole entry): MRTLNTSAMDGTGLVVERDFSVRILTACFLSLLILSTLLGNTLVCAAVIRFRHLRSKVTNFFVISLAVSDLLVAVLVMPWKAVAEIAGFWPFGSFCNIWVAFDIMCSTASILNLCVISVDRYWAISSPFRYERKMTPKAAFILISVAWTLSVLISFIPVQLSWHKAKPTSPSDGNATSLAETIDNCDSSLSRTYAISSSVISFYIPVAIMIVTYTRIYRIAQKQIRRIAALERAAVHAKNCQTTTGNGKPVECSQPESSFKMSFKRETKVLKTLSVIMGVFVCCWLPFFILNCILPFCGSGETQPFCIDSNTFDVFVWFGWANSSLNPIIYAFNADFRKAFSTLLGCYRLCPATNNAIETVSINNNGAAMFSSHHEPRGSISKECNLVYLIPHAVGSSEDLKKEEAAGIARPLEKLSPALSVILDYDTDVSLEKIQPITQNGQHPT
Sequence of D(1B) dopamine receptor (P21918 whole entry): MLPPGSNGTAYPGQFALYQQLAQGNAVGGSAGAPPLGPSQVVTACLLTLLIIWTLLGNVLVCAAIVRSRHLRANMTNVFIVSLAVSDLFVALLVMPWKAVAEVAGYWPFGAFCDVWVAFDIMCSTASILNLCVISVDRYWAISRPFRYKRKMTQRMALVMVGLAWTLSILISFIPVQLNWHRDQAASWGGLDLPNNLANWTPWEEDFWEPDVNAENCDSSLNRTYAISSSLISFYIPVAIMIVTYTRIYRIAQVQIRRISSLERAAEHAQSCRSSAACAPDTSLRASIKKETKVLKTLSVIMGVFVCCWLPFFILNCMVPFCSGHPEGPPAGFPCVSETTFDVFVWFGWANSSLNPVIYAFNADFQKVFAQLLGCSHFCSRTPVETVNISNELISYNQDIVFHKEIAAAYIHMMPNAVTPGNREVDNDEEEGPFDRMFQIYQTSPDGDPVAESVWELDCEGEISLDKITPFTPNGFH

SMILES | EC50 (D(2) dopamine receptor [1]; read-out: EC50) | Ki (D(2) dopamine receptor [2]; read-out: Ki) | Ki (D(2) dopamine receptor [2]; read-out: pKi (converted)) | EC50 (D(2) dopamine receptor [3]; read-out: EC50) | Cp [4] | Kp at 2 h [5] | Kp at 0.5 h [6] | concentration at 2 h [7] | concentration at 0.5 h [8] | further results
COc1cccc2cc(CNCCCCOc3ccc4c(c3)NC(=O)CC4)oc12 | 2.01 nM | 33.3 nM | 33.9 nM | 5.16 nM | 10.7 ng/mL | 0.384 | 0.183 | 4.1 ng/mL | 60.7 ng/mL | Cp [9]: 331 ng/mL
COc1cccc2c3c(oc12)CN(CCCCOc1ccc2ccc(=O)[nH]c2c1)CC3 | – | – | – | 18.8 nM | 397 ng/mL | – | – | – | – | AUC(0-t) at 24 h [10]: 2990 ng·h/mL; clearance [11]: 16.7 mL/min/kg; Cmax [12]: 1560 ng/mL; AUC(0-inf) [13]: 3010 ng·h/mL; half-life [14]: 2.87 h; AUC(0-inf) [15]: 8940 ng·h/mL; AUC(0-t) at 24 h [16]: 8920 ng·h/mL; bioavailability [17]: 88.8%; C0 at 24 h [18]: 1330 ng/mL; Ki (D(1B) dopamine receptor): 1040 nM; Ki ([19]; read-out: Ki): 555 nM; Ki ([19]; read-out: pKi (converted)): 562 nM; Ki (D(1A) dopamine receptor): 189 nM; Tmax [20]: 0.5 h; half-life [21]: 3.48 h
CCOc1cccc2c3c(oc12)CN(CCCCOc1ccc2ccc(=O)[nH]c2c1)CC3 | – | – | – | – | – | – | – | – | – | EC50 (D(2) dopamine receptor [3]; hek293t): Not Active
CCOc1cccc2cc(CNCC[C@H]3CC[C@H](NC(=O)N(C)C)CC3)oc12 | 3.81 nM | 99.3 nM | – | 14.7 nM | – | – | – | – | – | –
CC(C)Oc1cccc2c3c(oc12)CN(CCCCOc1ccc2ccc(=O)[nH]c2c1)CC3 | – | – | – | – | – | – | – | – | – | EC50 (D(2) dopamine receptor [3]; hek293t): Not Active
O=c1ccc2ccc(OCCCCNCc3cc4ccccc4o3)cc2[nH]1 | 2.51 nM | 239 nM | – | 25.8 nM | – | – | – | – | – | –
CCOc1cccc2cc(CNCCCCOc3ccc4ccc(=O)[nH]c4c3)oc12 | 0.22 nM | 0.12 nM | 0.129 nM | 0.13 nM | 53.1 ng/mL | 0.109 | 0.061 | 5.76 ng/mL | 48.3 ng/mL | Cp [9]: 792 ng/mL; EC50 (D(2) dopamine receptor [3]; read-out: pEC50 (converted)): 0.123 nM

Second part, led by results:

EC50 (D(2) dopamine receptor [1]; read-out: EC50) | Ki (D(2) dopamine receptor [2]; read-out: Ki) | Ki (D(2) dopamine receptor [2]; read-out: pKi (converted)) | EC50 (D(2) dopamine receptor [3]; read-out: EC50) | Cp [4] | Kp at 2 h [5] | Kp at 0.5 h [6] | concentration at 2 h [7] | concentration at 0.5 h [8] | SMILES | further results
1340 nM | 3190 nM | 3240 nM | 869 nM | – | – | – | – | – | COc1cccc2c3c(oc12)CN(CCCCOc1ccc2c(c1)NC(=O)C2)CC3 | EC50 (D(2) dopamine receptor [1]; read-out: pEC50 (converted)): 1410 nM
– | – | – | – | 6.95 ng/mL | 0.434 | 0.118 | 3.02 ng/mL | 32.1 ng/mL | COc1cccc2cc(CNCCCCOc3ccc4ccc(=O)[nH]c4c3)oc12 | Cp [9]: 272 ng/mL
– | – | – | – | 53.8 ng/mL | 0.113 | 0.142 | 6.05 ng/mL | 168 ng/mL | CCOc1cccc2cc(CNCCCCOc3ccc4c(c3)NC(=O)CC4)oc12 | –
26.6 nM | – | – | 0.31 nM | – | – | – | – | – | COc1cccc2c3c(oc12)CN(CCCOc1ccc2ccc(=O)[nH]c2c1)CC3 | –
6.2 nM | 67.9 nM | 69.2 nM | 10.9 nM | – | – | – | – | – | CCOc1cccc2cc(CNCC[C@H]3CC[C@H](NC(=O)N4CCCC4)CC3)oc12 | –
